Measurements published in patent US8043815B2, “Methods for analysis of PDEF and survivin as interconnected cancer biomarkers and targets for personalized medicine” (Health Research, Inc., priority 2007, dated 2011).

Experiments:
Assay type in all cases: cell-based
[1] = test system: PDEF-negative ovarian cancer cell lines; assay: Western blot of PDEF and survivin expression in PDEF-negative ovarian cancer cell lines treated with methylation inhibitor
Experimental: FIGS. 6A and 6B provide photographic representations of results obtained from Western blotting analysis of PDEF expression in PDEF-negative ovarian cancer cell lines treated with and without 5-aza-2-deoxycytidine (5-Aza-dC) for 5 days at 1 μM (FIG. 6A) or different concentrations of 5-Aza-dC (FIG. 6B).
We analyzed whether the loss of PDEF expression in cancer tissues during cancer progression is the result of epigenetic methylation of the PDEF gene. Four PDEF-negative ovarian cancer cell lines were treated with and without the methylation inhibitor 5-aza-2-deoxycytidine (5-Aza-dC) for 5 days at 1 μM (FIG. 6A) or different concentration of 5-Aza-dC (FIG. 6B). Cells were then lysed and analyzed for PDEF expression by Western blots.

[2] = test system: HCT116 parental colon cancer cells; assay: Western blot of survivin and PDEF expression in HCT116 parental colon cancer cells; settings: treated for 3 days
Experimental: (§1) FIG. 7 provides a photographic representation of results obtained from differential modulation of survivin and PDEF expression in an HCT116 parental colon cancer cell line, versus in an HCT116 cell line in which both the DNMT1 and DNMT3b DNA methyltransferases have been knocked out. Both HCT116 parental and double knockout (DNMT1^−/−/DNMT3B^−/−) colon cancer cell lines were treated with and without the methylation inhibitor 5-Aza-dC for 3 days as shown. Cells were lysed and analyzed for the expression of survivin and PDEF by western blots. Actin is the internal control of protein loading.
(§2) Since it is know that the survivin gene is not methylated, despite our identification of a CpG island in the survivin gene, this Example further supports that demethylation of PDEF via a DNA methylation inhibitor can facilitate downregulation of survivin expression.

[3] = test system: HCT116 colon cancer cells with double knockout (DKO) of DNMT1 and DNMT3b; assay: Western blot of survivin and PDEF expression in HCT116 DNMT1/DNMT3b double knockout cells; settings: treated for 3 days
Experimental: as §1, §2

[4] = test system: MDA-MB-231 breast cancer cells; assay: Cell growth and cell death of MDA-MB-231 cells after sequential MSA / Zebularine treatment (digital images); settings: images 48 hours after new medium replacement
Experimental: (§3) FIG. 8 provides a photographic representation of results showing a synergistic effect of DNA methylation inhibitors in combination with DNA methylation inducers/promoters on massive cancer cell death. Sequential treatment of MDA-MB-231 breast cancer cells with methylseleninic acid (MSA, a DNA methylation inducer/promoter) for 48 hours and Zebularine (a DNA methylation inhibitor) for 24 hours alone or in combination as shown. Growth medium with drugs was replaced with complete new medium without drugs 24 hour after Zebularine treatment. Images were then taken using a digital camera 48 hours after new medium replacement.
as §3, with “Sequential” for “FIG. 8 provides a photographic representation of results showing a synergistic effect of DNA methylation inhibitors in combination with DNA methylation inducers/promoters on massive cancer cell death. Sequential”

| Structure (SMILES) | PDEF expression by western blots ([1]; four PDEF-negative ovarian cancer cell lines, 5 days at 1 μM or different concentration) | expression of survivin by Western blots ([1]; ovarian cancer cell lines with restored PDEF expression, different concentrations of 5-Aza-dC, 5 days (FIG. 6B)) | PDEF expression by western blots [2] | survivin expression by western blots [2] | PDEF expression by western blots [3] | survivin expression by western blots [3] | cell growth inhibition ([4]; MSA 48 hours, Zebularine 24 hours, alone) | induction of cell death ([4]; alone or sequential combination (MSA then Zebularine)) |
| --- | --- | --- | --- | --- | --- | --- | --- | --- |
| Nc1ncn([C@H]2C[C@H](O)[C@@H](CO)O2)c(=O)n1 [5-Aza-dC, 5-aza-2-deoxycytidine] | two of the four ovarian cancer cell lines showed restored expression of PDEF | reduces or eliminates the expression of survivin | induces PDEF expression | decreases survivin expression | no effect | no effect | – | – |
| C[Se](=O)O [MSA, methylseleninic acid] | – | – | – | – | – | – | only moderately inhibit cell growth | without induction of cell death |
